Results on 13 compounds are retold here after patent US20250230165A1, “HETEROCYCLIC COMPOUNDS FOR USE IN THE TREATMENT OF CANCER” (ARTIOS PHARMA LIMITED, priority 2021, published 2025).

In this test the target is T1, Human Polθ polymerase domain (aa1820-2590) (Homo sapiens, UniProt O75417).
T1 construct: Human Polθ polymerase domain (aa1820-2590) was expressed in E. coli; made in house; host or cells: E. coli
T1 sequence (O75417 1820-2590): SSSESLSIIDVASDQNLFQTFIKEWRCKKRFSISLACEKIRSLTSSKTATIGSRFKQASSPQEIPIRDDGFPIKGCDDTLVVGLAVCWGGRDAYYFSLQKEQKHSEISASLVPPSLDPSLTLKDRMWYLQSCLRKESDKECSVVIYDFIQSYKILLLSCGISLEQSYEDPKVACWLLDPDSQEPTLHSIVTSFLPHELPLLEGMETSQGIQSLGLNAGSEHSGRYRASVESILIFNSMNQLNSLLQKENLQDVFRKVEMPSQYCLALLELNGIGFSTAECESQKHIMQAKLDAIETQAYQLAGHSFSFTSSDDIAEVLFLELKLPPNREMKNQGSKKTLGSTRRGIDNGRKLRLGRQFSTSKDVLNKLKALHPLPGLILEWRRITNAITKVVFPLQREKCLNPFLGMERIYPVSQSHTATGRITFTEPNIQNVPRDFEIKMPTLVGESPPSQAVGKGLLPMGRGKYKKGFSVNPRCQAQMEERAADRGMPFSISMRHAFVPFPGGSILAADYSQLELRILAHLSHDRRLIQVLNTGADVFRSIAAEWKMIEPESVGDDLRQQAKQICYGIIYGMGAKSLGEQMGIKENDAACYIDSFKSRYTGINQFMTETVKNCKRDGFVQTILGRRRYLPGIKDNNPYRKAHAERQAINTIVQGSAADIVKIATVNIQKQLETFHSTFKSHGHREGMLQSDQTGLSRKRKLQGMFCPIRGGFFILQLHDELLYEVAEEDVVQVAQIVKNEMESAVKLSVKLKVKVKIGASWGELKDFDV
As to the kind of experiment: Polθ Polymerase Domain Kinact/KI Assay (PicoGreen). It is filed as biochemical. To be noted: 0.8 nM Polθ, 100 nM DNA substrate, kobs vs [I] fit for 2-step covalent inhibitor. The essentials: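 Kinact and KI derive from fitting kobs versus [I], where kobs were fitted from EDTA-stopped PicoGreen time courses (up to 60 min) in Tris pH 7.5 buffer with 1% DMSO, 0.8 nM enzyme, 100 nM DNA and […].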

In turn, `Cc1cc(C(F)(F)F)cc(N2C(=O)C[C@@H]3CN(CCCC(F)CNC(=O)/C=C/CN(C)C)c4c(Cl)cccc4N(C)C(=O)[C@H]32)n1` (stereo partly drawn) [Example 295, (E)-N-(5-((3aR,11aS)-6-chloro-10-methyl-1-(6-methyl-4-(trifluoromethyl)pyridin-2-yl)-2,11-dioxo-1,2,3,3a,4,10,11,11a-octahydro-5H-benzo[b]pyrrolo[2,3-f][1,4]diazocin-5-yl)-2-fluoropentyl)-4-(dimethylamino)but-2-enamide] had a Kinact/Kl of 1.62e+06 M⁻¹ s⁻¹.

`C=CC(=O)N1CCC[C@H]1c1ccc(CN2C[C@H]3CC(=O)N(c4cc(C(F)(F)F)cc(C)n4)[C@@H]3C(=O)N(C)c3cccc(F)c32)cc1` (racemic) [Example 141b, (3aR,11aS)-5-(4-((S/R)-1-acryloylpyrrolidin-2-yl)benzyl)-6-fluoro-10-methyl-1-(6-methyl-4-(trifluoromethyl)pyridin-2-yl)-1,3a,4,5,10,11a-hexahydro-2H-benzo[b]pyrrolo[2,3-f][1,4]diazocine-2,11(3H)-dione] returned a Kinact/Kl of 100000 M⁻¹ s⁻¹.

`C=CC(=O)N1CCN(c2cccc(N3C[C@H]4CC(=O)N(c5cc(C(F)(F)F)cc(C)n5)[C@@H]4C(=O)N(C)c4cccc(Cl)c43)n2)CC1` [Example 56, (3aR,11aS)-5-(6-(4-acryloylpiperazin-1-yl)pyridin-2-yl)-6-chloro-10-methyl-1-(6-methyl-4-(trifluoromethyl)pyridin-2-yl)-1,3a,4,5,10,11a-hexahydro-2H-benzo[b]pyrrolo[2,3-f][1,4]diazocine-2,11(3H)-dione]: the Kinact/Kl came to 36000 M⁻¹ s⁻¹.

`C=CC(=O)NC1CCN(CCN2C[C@H]3CC(=O)N(c4cc(C(F)(F)F)cc(C)n4)[C@@H]3C(=O)N(C)c3cccc(Cl)c32)CC1(F)F` (mixture of isomers) [Example 257a, N—((S/R)-1-(2-((3aR,11aS)-6-chloro-10-methyl-1-(6-methyl-4-(trifluoromethyl)pyridin-2-yl)-2,11-dioxo-1,2,3,3a,4,10,11,11a-octahydro-5H-benzo[b]pyrrolo[2,3-f][1,4]diazocin-5-yl)ethyl)-3,3-difluoropiperidin-4-yl)acrylamide] came in with a Kinact/Kl of 2.17e+06 M⁻¹ s⁻¹.

Turning to `Cc1cc(C(F)(F)F)cc(N2C(=O)C[C@@H]3CN(Cc4ccc5c(c4)CN(C(=O)/C=C/CN(C)C)C5)c4c(F)cccc4N(C)C(=O)[C@H]32)n1` [Example 148, (3aR,11aS)-5-((2-((E)-4-(dimethylamino)but-2-enoyl)isoindolin-5-yl)methyl)-6-fluoro-10-methyl-1-(6-methyl-4-(trifluoromethyl)pyridin-2-yl)-1,3a,4,5,10,11a-hexahydro-2H-benzo[b]pyrrolo[2,3-f][1,4]diazocine-2,11(3H)-dione], the Kinact/Kl is 1.65e+06 M⁻¹ s⁻¹.

As to `C=CC(=O)N1CC2(CN(CCN3C[C@H]4CC(=O)N(c5cc(C(F)(F)F)cc(C)n5)[C@@H]4C(=O)N(C)c4cccc(F)c43)Cc3nccn32)C1` [Example 105, (3aR,11aS)-5-(2-(1-acryloyl-6′H-spiro[azetidine-3,5′-imidazo[1,2-a]pyrazin]-7′(8′H)-yl)ethyl)-6-fluoro-10-methyl-1-(6-methyl-4-(trifluoromethyl)pyridin-2-yl)-1,3a,4,5,10,11a-hexahydro-2H-benzo[b]pyrrolo[2,3-f][1,4]diazocine-2,11(3H)-dione], the Kinact/Kl worked out at 1.04e+06 M⁻¹ s⁻¹.

In turn, `Cc1cc(C(F)(F)F)cc(N2C(=O)C[C@@H]3CN(Cc4cccc(NC(=O)/C=C/CN(C)C)c4)c4c(Cl)cccc4N(C)C(=O)[C@H]32)n1` [Example 247, (E)-N-(3-(((3aR,11aS)-6-chloro-10-methyl-1-(6-methyl-4-(trifluoromethyl)pyridin-2-yl)-2,11-dioxo-1,2,3,3a,4,10,11,11a-octahydro-5H-benzo[b]pyrrolo[2,3-f][1,4]diazocin-5-yl)methyl)phenyl)-4-(dimethylamino)but-2-enamide] had a Kinact/Kl of 980000 M⁻¹ s⁻¹.

Turning to `C=CC(=O)N1CC(N2CCN(CCN3C[C@H]4CC(=O)N(c5cc(C(F)(F)F)cc(C)n5)[C@@H]4C(=O)N(C)c4cc(F)cc(Cl)c43)CC2)C1` [Example 17, (3aR,11aS)-5-(2-(4-(1-acryloylazetidin-3-yl)piperazin-1-yl)ethyl)-6-chloro-8-fluoro-10-methyl-1-(6-methyl-4-(trifluoromethyl)pyridin-2-yl)-1,3a,4,5,10,11a-hexahydro-2H-benzo[b]pyrrolo[2,3-f][1,4]diazocine-2,11(3H)-dione], the Kinact/Kl is 1.19e+06 M⁻¹ s⁻¹.

The compound `C=CC(=O)N1CC(N2CC[C@H](CN3C[C@H]4CC(=O)N(c5cc(C(F)(F)F)cc(C)n5)[C@@H]4C(=O)N(C)c4cccc(Cl)c43)C2)C1` [Example 218, (3aR,11aS)-5-(((S)-1-(1-acryloylazetidin-3-yl)pyrrolidin-3-yl)methyl)-6-chloro-10-methyl-1-(6-methyl-4-(trifluoromethyl)pyridin-2-yl)-1,3a,4,5,10,11a-hexahydro-2H-benzo[b]pyrrolo [2,3-f][1,4] diazocine-2,11 (3H)-dione] gave a Kinact/Kl of 1.62e+06 M⁻¹ s⁻¹.

Compound `C=CC(=O)N1Cc2nc(CN3C[C@H]4CC(=O)N(c5cc(C(F)(F)F)cc(C)n5)[C@@H]4C(=O)Nc4cccc(Cl)c43)cn2C[C@@H]1C` (racemic) [Example 144b, (3aR,11aS)-5-(((S/R)-7-acryloyl-6-methyl-5,6,7,8-tetrahydroimidazo[1,2-a]pyrazin-2-yl)methyl)-6-chloro-1-(6-methyl-4-(trifluoromethyl)pyridin-2-yl)-1,3a,4,5,10,11a-hexahydro-2H-benzo[b]pyrrolo[2,3-f][1,4]diazocine-2,11(3H)-dione] yielded a Kinact/Kl of 2e+06 M⁻¹ s⁻¹.

Compound `C#CC(=O)NC12CC(CN3C[C@H]4CC(=O)N(c5cc(C(F)(F)F)cc(C)n5)[C@@H]4C(=O)N(C)c4cccc(C)c43)(C1)C2` [Example 200, N-(3-(((3aR,11aS)-6,10-dimethyl-1-(6-methyl-4-(tri-fluoromethyl)pyri-din-2-yl)-2,11-dioxo-1,2,3,3a,4, 10,11,11a-octa-hydro-5H-benzo[b]pyrrolo[2,3-f][1,4]diazocin-5-yl)-methyl)bicyclo [1.1.1]pentan-1-yl)propiolamide] registered a Kinact/Kl of 690000 M⁻¹ s⁻¹.

`C=CC(=O)N1CC(N2CCC(N3C[C@H]4CC(=O)N(c5cc(C(F)(F)F)cc(C)n5)[C@@H]4C(=O)N(C)c4cccc(F)c43)CC2)C1` [Example 216, (3aR,11aS)-5-(1-(1-acryloylazetidin-3-yl)piperidin-4-yl)-6-fluoro-10-methyl-1-(6-methyl-4-(trifluoromethyl)pyridin-2-yl)-1,3a,4,5,10,11a-hexahydro-2H-benzo[b]pyrrolo [2,3-f][1,4] diazocine-2,11(3H)-dione] yielded a Kinact/Kl of 430000 M⁻¹ s⁻¹.

Take `C=CC(=O)N1Cc2c(CN3C[C@H]4CC(=O)N(c5cc(C(F)(F)F)cc(C)n5)[C@@H]4C(=O)N(C)c4cccc(C)c43)nn(C)c2C1` [Example 317, (3aR,11aS)-5-((5-acryloyl-1-methyl-1,4,5,6-tetrahydro-pyrrolo[3,4-c]pyr-azol-3-yl)methyl)-6,10-dimethyl-1-(6-methyl-4-(trifluoro-methyl)pyridin-2-yl)-1,3a,4,5,10,11a-hexahydro-2H-benzo[b]pyrrolo [2,3-f][1,4]diazo-cine-2,11(3H)-dione]: the Kinact/Kl is 230000 M⁻¹ s⁻¹.
